# According to article PMC10259201, “Mercapto-pyrimidines are reversible covalent inhibitors of the papain-like protease (PLpro) and inhibit SARS-CoV-2 (SCoV-2) replication” (RSC Advances, 2023):
# pIC50, pKd: −log10 of the molar value. Several values for one entry are separate records, joined by “and”; a condition that tells them apart may be missing. Equal values may be shown once. Entries after “also recorded” stand apart in the source; their conditions may differ. Read-outs that look alike come from different tables or passages of the source.
# Legend:
# PLpro from SCoV-2 [1] = target: PLpro from SCoV-2 (Severe acute respiratory syndrome coronavirus 2, UniProt P0DTD1); assay: Fluorescent PLpro inhibition assay (RLRGG-AMC substrate), dose response; assay type: biochemical, SARS-CoV-2
# SARS-CoV-2 USA-WA1/2020 = assay: SCoV-2 USA-WA1/2020 antiviral assay with plaque forming readout in Vero E6 cells; assay type: cell-based
# PLpro [2] = target: T1, PLpro (Severe acute respiratory syndrome coronavirus 2, UniProt P0DTD1); assay: Surface plasmon resonance with immobilized His-tagged PLpro; assay type: binding, SARS-CoV-2
# PLpro [3] = target: T1, PLpro; assay: Time dependent PLpro inhibition assay (pre-incubation); assay type: biochemical, SARS-CoV-2
# Source text: Compound 5 contains a mercaptopyrimidine fragment, which can potentially undergo addition–elimination reactions with nucleophiles. For example, Murugesan et al. recently identified a mercaptopyrimidine based inhibitor of tuberculosis cell growth, which reacted with glutathione under physiological conditions.[27,35] PLpro is a cysteine protease with a nucleophilic cysteine in its active site, which could potentially react with compound 5via an additional elimination reaction. We performed a time dependent PLpro inhibition assay with compound 5 to determine if pre-incubation time lowered its IC50. Pre-incubation time lowers the IC50 of covalent inhibitors because it gives more time for the protein to react with the inhibitor. In contrast, pre-incubation time frequently has no effect on the IC50 of non-covalent inhibitors because their koffs are generally on the timescale of second to minutes.
# The PLpro protein (50 nM) was preincubated with different concentration of inhibitor (0, 1, 2.5, 5, 10 and 20 μM) for different time points (0, 5, 10, 20, 35, 95, 125, 185 minutes). The substrate (50 μM) was added and measured the fluorescence. The data was analyzed using Enzyme – inhibition, GraphPad Prism.
# PLpro [4] = target: T1, PLpro; assay: Jump dilution assay (reversibility of PLpro inhibition); assay type: biochemical, SARS-CoV-2
# Method: To investigate if compound 5 constitutes a novel class of RCI, we performed a jump dilution assay with PLpro, compound 5 and beta-mercaptoethanol (BMe). PLpro and compound 5 were mixed and allowed to react, diluted 25-fold in the presence of 5 mM BMe[38,39] and the inhibition of PLpro was measured.
# BMe is not a biological nucleophile, and we re-did the jump dilution assay in the presence of either 5 mM reduced glutathione (GSH) or 200 μM cysteine (their physiological concentrations)[40] to determine if the PLpro-compound 5 adduct would rapidly decompose in cells. […] In contrast, smaller thiols such as BMe and cysteine can apparently access the PLpro active site and can displace compound 5. […] In addition, the mercaptopryimidine ring can function as a size selective filter for thiols and this unique feature should allow it to find numerous applications in drug discovery.
# PLpro was mixed with compound 5 at the 10-fold higher concentration of IC50 (10 × IC50) and allowed to form protein-inhibitor complex at saturating conditions at room temperature. The complex was then rapidly diluted in a buffer supplemented with 5 mM reduced glutathione, 5 mM beta-mercaptoethanol (BMe), 200 μM cysteine to bring the compound's concentration of 1/10 × IC50. After 5 minutes of dilution, the substrate was added and incubated for 30 minutes. The fluorescent intensities were read at the excitation wavelength of 360 nm and emission wavelength of 460 nm.
# [5] = Cytotoxicity assay (resazurin); assay type: cell-based; conditions: African green monkey, Vero CCL-81 cells, Vero CCL-81, resazurin, read-out: cell viability
# Vero CCL-81 cells = assay: Cytotoxicity assay (resazurin); assay type: cell-based; conditions: 50 μM, Vero CCL-81, resazurin
# SARS-CoV-2-NLuc = assay type: cell-based; conditions: data not shown
# SCoV2 PLpro = SCoV2 PLpro (Severe acute respiratory syndrome coronavirus 2, UniProt P0DTD1); assay: Gel-based activity based protein profiling (IA-rhodamine / NHS-rhodamine); assay type: biochemical, SARS-CoV-2; conditions: pulse chase
# Method: We performed activity-based profiling experiments to determine if compound 5 covalently reacted with the cysteines or lysines of PLpro.[36] Iodoacetamide-rhodamine was used as the probe for cysteine reactivity analysis and NHS-rhodamine was the probe for investigating lysine reactivity on PLpro. A traditional pulse chase experiment was performed with PLpro and the rhodamine dyes, where PLpro was first incubated with compound 5 and then incubated with iodoacetamide-rhodamine or NHS-rhodamine. After the dye incubation, PLpro was run on a protein gel and imaged via fluorescence. […] The other thiols in PLpro are either disulfides, which are unreactive to nucleophiles, or zinc chelated and have diminished nucleophilicity.
# For gel-based ABPP experiments with PLpro, pure SCoV2 PLpro protein (0.1 μg per sample for IA-rhodamine and 0.05 μg for NHS-rhodamine) was pretreated with either DMSO vehicle or desired dosage of compound 5 at 37 °C for 1 hour in 25 μL PBS. […] Probe-labeled proteins were analyzed by in-gel rhodamine fluorescence using a ChemiDoc MP (Bio-Rad). Protein loading was assessed by Silver Staining.
# SCoV PLpro = system: SCoV PLpro; set-up: method as in PMID 18852458; conditions: cited from earlier work
# SCoV-2 [6] = system: SCoV-2; set-up: method as in PMID 33531496, PMID 32895623, PMID 33473130, PMID 34341772, PMID 32845033; conditions: cited from earlier work
# PLpro from SCoV-2 [7] = system: PLpro from SCoV-2; set-up: method as in PMID 33531496, PMID 32895623, PMID 33473130, PMID 34341772, PMID 32845033; conditions: cited from earlier work
# SCoV-2 [8] = system: SCoV-2; set-up: method as in PMID 33531496, PMID 32895623, PMID 33473130, PMID 34341772, PMID 32845033; conditions: oral delivery; cited from earlier work
# [9] = IC50 (PLpro inhibition, HTS hits), HTS hit dose response, 10 point 1:2 dilution from 40 μM, 50 nM PLpro, 50 μM RLRGG-AMC
# [10] = IC50 (PLpro inhibition, compound 5 and derivatives), hit exploration / SAR, compounds purchased from ChemDiv
smiles,measurement,setting,value
Cc1nn(-c2ccccc2)c(OC(=O)C(C)C)c1Sc1ccccc1 [Compound 1],pIC50,PLpro from SCoV-2 [1]; [9],6.09
CNC(=O)c1sc(=S)n(-c2cc(Cl)ccc2OC)c1N [Compound 2],pIC50,PLpro from SCoV-2 [1]; [9],6.01
Cc1nnc(Sc2nc(Sc3nnc(C)s3)nc(Sc3nnc(C)s3)n2)s1 [Compound 4],pIC50,PLpro from SCoV-2 [1]; [9],5.85
CCSc1nc2sc3c(c2c(=O)n1CC)CCc1ccccc1-3 [Compound 5B],antiviral activity in Vero E6 cells by plaque assay,SARS-CoV-2 USA-WA1/2020,did not have any antiviral activity; also recorded: do not exhibit antiviral activity
same,pIC50,"PLpro from SCoV-2 [1]; hit exploration / SAR, compounds purchased from ChemDiv, read-out: IC50 (PLpro inhibition, compound 5 and derivatives)",5.30
C=CCSc1nc2sc3c(c2c(=O)n1CC)CCc1ccccc1-3 [Compound 5E],antiviral activity in Vero E6 cells by plaque assay,SARS-CoV-2 USA-WA1/2020,did not have any antiviral activity; also recorded: do not exhibit antiviral activity
same,pKd,PLpro [2],5.08
same,pIC50,PLpro from SCoV-2 [1]; [10],6.05 and 6.07
same,IC50 relative to compound 5 (times lower / fold higher potency),PLpro from SCoV-2 [1]; compared with compound 5,approximately 5 fold
CCCSc1nc2sc3c(c2c(=O)n1CC)CCc1ccccc1-3 [Compound 5],reduction in infectious virus levels (plaque forming assay),SARS-CoV-2 USA-WA1/2020; 10 μM,3 fold
same,reduction in infectious virus levels (plaque forming assay),SARS-CoV-2 USA-WA1/2020; 20 μM,22 fold
same,pIC50,"PLpro [3]; 3 hour pre-incubation with PLpro, read-out: IC50 of PLpro inhibition after 3 hour pre-incubation",6.05
same,decrease in IC50 after pre-incubation,PLpro [3]; 3 hours pre-incubation vs none,10 fold
same,pIC50,"PLpro [3]; no pre-incubation, read-out: IC50 of PLpro inhibition, no pre-incubation",5.05
same,recovery of PLpro activity after dilution,PLpro [4]; 200 μM cysteine,can regenerate active PLpro; also recorded: recovered the activity of PLpro
same,recovery of PLpro activity after dilution,PLpro [4]; 5 mM reduced glutathione (GSH),cannot; also recorded: did not
same,recovery of PLpro activity after dilution,"PLpro [4]; diluted 25-fold with 5 mM BMe, 5 minutes",90%
same,recovery of PLpro activity after dilution,PLpro [4]; dilution in PBS,still inhibits PLpro after dilution with PBS
same,recovery of PLpro activity after dilution,"PLpro [4]; dilution in PBS, listed as compound 5",no effect on the activity of PLpro
same,"viability at 72 h, 1 µM",[5]; 1 μM,> 85%
same,"viability at 72 h, 10 µM",[5]; 10 μM,> 85%
same,"viability at 72 h, 25 µM",[5]; 25 μM,> 85%
same,toxicity,Vero CCL-81 cells,significant toxicity
same,pKd,"PLpro [2]; SPR, His-tagged PLpro on Ni-NTA chip, read-out: binding constant KD",4.68
same,reduction of NLuc levels of infected cells,SARS-CoV-2-NLuc; 10 μM,3 fold
same,reduction of NLuc levels of infected cells,SARS-CoV-2-NLuc; 20 μM,7 fold
same,pIC50,PLpro from SCoV-2 [1]; [9],5.80
same,pIC50,PLpro from SCoV-2 [1]; [10],5.29 and 5.28 and 5.30
same,cysteine reactivity: blocking of iodoacetamide-rhodamine labelling of PLpro,SCoV2 PLpro; IA-rhodamine probe,prevents PLpro from reacting with iodo-acetamide; also recorded: able to prevent PLpro from reacting with iodo-acetamide
same,lysine reactivity: blocking of NHS-rhodamine labelling of PLpro,SCoV2 PLpro; NHS-rhodamine probe,unable to prevent PLpro from reacting with NHS-rhodamine
CCn1c(N)c(C(=O)Nc2ccccc2OC)sc1=S [Compound 6],pIC50,PLpro from SCoV-2 [1]; [9],5.56
CCOC(=O)c1sc(=S)n(-c2cc(OC)ccc2OC)c1N [Compound 7],pIC50,PLpro from SCoV-2 [1]; [9],5.41
CN(C)C(S)=Nc1nc2ccccc2s1 [Compound 8],pIC50,PLpro from SCoV-2 [1]; [9],5.32
COC(=O)c1ccc([C@@H]2Nc3c(Cl)cccc3[C@@H]3C=CC[C@@H]32)cc1 [Compound 9],pIC50,PLpro from SCoV-2 [1]; [9],5.10
Cc1ccc(-n2c(N)c(C(=O)N3CCCCC3)sc2=S)cc1 [Compound 10],pIC50,PLpro from SCoV-2 [1]; [9],5.08
Cc1ccc(N)cc1C(=O)N[C@H](C)c1cccc2ccccc12 [GRL0617],IC50 (SCoV PLpro),SCoV PLpro,low micromolar range
same,IC50 (viral replication in cells),SCoV-2 [6],micromolar range
same,IC50 (PLpro from SCoV-2),PLpro from SCoV-2 [7],micromolar range
same,antiviral activity against SCoV-2 in mice,SCoV-2 [8],moderate antiviral activity
"CCC(CC)COC(=O)[C@H](C)N[P@](=O)(OC[C@H]1O[C@@](C#N)(c2ccc3c(N)ncnn23)[C@H](O)[C@@H]1O)Oc1ccccc1 [Remdesivir, reference compound]","antiviral activity, positive control in plaque forming assay",SARS-CoV-2 USA-WA1/2020; 100 μM,potently inhibited the virus
